According to PMC12070228, “Investigations of Enteric-Coated Tablet Propyl Gallate-Induced Nephrotoxicity in Beagles as well as Human and Dog Renal Proximal Tubule Epithelial Cells” (ACS Pharmacology & Translational Science, 2025):
Where two headings read alike, the source gives them in different places.

Test: PG toxicokinetics in dog plasma (LC-MS/MS), studies 001-005
Type: in vivo
Settings: beagle, po
Method: Samples were vortexed and centrifuged before injection.
The total run time was 5.5 min.
The targeted quantitation of PG and phase-I/II metabolites was conducted using peak area ratio of analytes and internal standards in MultiQuant software (SCIEX).
In the follow-up 4-week study (study 003), dogs received EC tablets consisting of the clinical formulation excipients minus PG, clinical formulation excipients minus NaCDC, or PG alone in a gelatin capsule once daily for 26 days. […] Samples for PG toxicokinetics were collected on days 1 and 22 of the dosing-phase at predose (Day 22 only) and 0.5, 1, 2, 4, 6, 8, 12, and 24 h postdose. […] Plasma samples for the measurement of lipopolysaccharide (LPS) were taken twice in the pretest period, predose and 2 h after dosing on Days 15 and 22, and prior to necropsy. LPS concentrations were measured using a qualified sandwich ELISA method (LSBiosciences) with a detection range of 7.82 to 500 pg/mL.
Table S2. Correlation of PG exposure with nephrotoxicity.
AUC0-24 = area under the concentration versus time curve from time 0 to 24 hours; clin = clinical; F = female; M = male; NR = no result due to insufficient data. […]
a Clinical formulation excipients included sodium chenodeoxycholate (Na CDC), propyl gallate (PG), tris(hydroxymethyl)aminomethane (Tris)(except for Study 005), mannitol, crospovidone, aerosil, sodium stearyl fumarate, eudragit, and plasarcryl. b Study 001: Initial 4-week investigational new drug (IND)-enabling good laboratory practice (GLP) study c Study 002: Investigative 4-week study with different excipient combinations d Study 003: Follow-up investigative 4-week study with non-enteric coated capsule e Study 004: 3-month GLP study f Study 005: 9-month GLP study g Day 7 AUC value is presented; AUC could not be calculated for Day 28 samples due to insufficient data. h Minimal nephropathy observed in 2 recovery (4 weeks) group females, but not in main group animals.

SMILES: CCCOC(=O)c1cc(O)c(O)c(O)c1 [PG, propyl gallate]
- AUC(0-t) (12.5 mg/kg/day, PG 12.5, NaCDC 10, MEDI7219 0.75 mg/kg/day, clin excipients, Study 005 Day 112, read-out: Propyl Gallate Exposure (AUC0-24)): 72 ng·h/mL
- AUC(0-t) (12.5 mg/kg/day, PG 12.5, NaCDC 10, MEDI7219 0.75 mg/kg/day, clin excipients, Study 005 Day 196, read-out: Propyl Gallate Exposure (AUC0-24)): 88 ng·h/mL
- AUC(0-t) (12.5 mg/kg/day, PG 12.5, NaCDC 10, MEDI7219 0.75 mg/kg/day, clin excipients, Study 005 Day 266, read-out: Propyl Gallate Exposure (AUC0-24)): 90 ng·h/mL
- AUC(0-t) (14 mg/kg/day, PG 14, NaCDC 7, MEDI7219 0.4 mg/kg/day, clin excipients, Study 004 Day 78, read-out: Propyl Gallate Exposure (AUC0-24)): 101 ng·h/mL
- AUC(0-t) (200 mg/kg/day, PG 200, NaCDC 0, MEDI7219 0 mg/kg/day, clin excipients minus NaCDC and Tris, Study 002 Day 14, read-out: Propyl Gallate Exposure (AUC0-24)): 1890 ng·h/mL
- AUC(0-t) (200 mg/kg/day, PG 200, NaCDC 0, MEDI7219 0 mg/kg/day, clin excipients minus NaCDC and Tris, Study 002 Day 21, read-out: Propyl Gallate Exposure (AUC0-24)): 4840 ng·h/mL
- AUC(0-t) (200 mg/kg/day, PG 200, NaCDC 0, MEDI7219 0 mg/kg/day, clin excipients minus NaCDC, Study 002 Day 14, read-out: Propyl Gallate Exposure (AUC0-24)): 2580 ng·h/mL
- AUC(0-t) (200 mg/kg/day, PG 200, NaCDC 0, MEDI7219 0 mg/kg/day, clin excipients minus NaCDC, Study 002 Day 21, read-out: Propyl Gallate Exposure (AUC0-24)): 1850 ng·h/mL
- AUC(0-t) (200 mg/kg/day, PG 200, NaCDC 0, MEDI7219 0 mg/kg/day, clin excipients minus NaCDC, Study 003 Day 22, read-out: Propyl Gallate Exposure (AUC0-24)): 6290 ng·h/mL
- AUC(0-t) (200 mg/kg/day, PG 200, NaCDC 0, MEDI7219 0 mg/kg/day, gelatin capsule (PG only), Study 003 Day 22, read-out: Propyl Gallate Exposure (AUC0-24)): 1980 ng·h/mL
- AUC(0-t) (200 mg/kg/day, PG 200, NaCDC 100, MEDI7219 0 mg/kg/day, clin excipients minus Tris, Study 002 Day 14, read-out: Propyl Gallate Exposure (AUC0-24)): 2760 ng·h/mL
- AUC(0-t) (200 mg/kg/day, PG 200, NaCDC 100, MEDI7219 0 mg/kg/day, clin excipients minus Tris, Study 002 Day 21, read-out: Propyl Gallate Exposure (AUC0-24)): 1800 ng·h/mL
- AUC(0-t) (200 mg/kg/day, PG 200, NaCDC 100, MEDI7219 0 mg/kg/day, clin excipients, Study 002 Day 14, read-out: Propyl Gallate Exposure (AUC0-24)): 3250 ng·h/mL
- AUC(0-t) (200 mg/kg/day, PG 200, NaCDC 100, MEDI7219 2 mg/kg/day, clin excipients, Study 001 Day 28, read-out: Propyl Gallate Exposure (AUC0-24)): 1210 ng·h/mL
- AUC(0-t) (PG 25, NaCDC 20, MEDI7219 0.25 mg/kg/day, clin excipients, Study 005 Day 112, read-out: Propyl Gallate Exposure (AUC0-24)): 135 ng·h/mL
- AUC(0-t) (PG 25, NaCDC 20, MEDI7219 0.25 mg/kg/day, clin excipients, Study 005 Day 196, read-out: Propyl Gallate Exposure (AUC0-24)): 232 ng·h/mL
- AUC(0-t) (PG 36, NaCDC 18, MEDI7219 1.1 mg/kg/day, clin excipients, Study 004 Day 78, read-out: Propyl Gallate Exposure (AUC0-24)): 282 ng·h/mL
- AUC(0-t) (PG 44, NaCDC 22, MEDI7219 0 mg/kg/day, clin excipients, Study 005 Day 196, read-out: Propyl Gallate Exposure (AUC0-24)): 864 ng·h/mL
- AUC(0-t) (PG 44, NaCDC 35, MEDI7219 2.6 mg/kg/day, clin excipients, Study 005 Day 196, read-out: Propyl Gallate Exposure (AUC0-24)): 1870 ng·h/mL
- AUC(0-t) (PG 60, NaCDC 48, MEDI7219 0 mg/kg/day, clin excipients, Study 005 Day 112, read-out: Propyl Gallate Exposure (AUC0-24)): 3610 ng·h/mL
- AUC(0-t) (PG 60, NaCDC 48, MEDI7219 3.6 mg/kg/day, clin excipients, Study 005 Day 112, read-out: Propyl Gallate Exposure (AUC0-24)): 829 ng·h/mL
- AUC(0-t) (PG 76, NaCDC 38, MEDI7219 0.75 mg/kg/day, clin excipients, Study 001 Day 28, read-out: Propyl Gallate Exposure (AUC0-24)): 618 ng·h/mL
- AUC(0-t) (PG 100, NaCDC 50, MEDI7219 0 mg/kg/day, clin excipients, Study 004 Day 78, read-out: Propyl Gallate Exposure (AUC0-24)): 1830 ng·h/mL
- AUC(0-t) (PG 100, NaCDC 50, MEDI7219 3 mg/kg/day, clin excipients, Study 004 Day 78, read-out: Propyl Gallate Exposure (AUC0-24)): 767 ng·h/mL
- AUC(0-t) (PG 200, NaCDC 100, MEDI7219 0 mg/kg/day, clin excipients, Study 001, Day 28 column but Day 7 AUC value is presented (footnote g), read-out: Propyl Gallate Exposure (AUC0-24)): 2560 ng·h/mL
- AUC(0-t) (female, 25 mg/kg/day, female (F), PG 25, NaCDC 20, MEDI7219 0.25 mg/kg/day, clin excipients, Study 005 Day 266, read-out: Propyl Gallate Exposure (AUC0-24)): 986 ng·h/mL
- AUC(0-t) (male, 25 mg/kg/day, male (M), PG 25, NaCDC 20, MEDI7219 0.25 mg/kg/day, clin excipients, Study 005 Day 266, read-out: Propyl Gallate Exposure (AUC0-24)): 158 ng·h/mL
